# Results published in publication PMC5556109, “A combinatorial approach for the discovery of cytochrome P450 2D6 inhibitors from nature” (Scientific Reports, 2017).
# Like-named read-outs stand apart in the source and are kept apart here.
# How the values were obtained:
# [1] = target: CYP2D6 (Homo sapiens, UniProt P10635); test: P450-Glo CYP2D6 inhibition assay (bioluminescence-based; pre-screen at 100 µM and IC50 determination); conditions: for classification of CYP2D6 inhibition (actives / weak actives / inactives): ranked by IC50, inactives from pre-screen at 100 µM
# Protocol: Their CYP2D6 inhibitory potential was determined at a concentration of 100 µM in a final reaction volume of 50 µl. […] All compounds were dissolved in DMSO and the concentration thereof in the final reaction volume was 1%, according to the limitations indicated in the manufacturer’s protocol. […] To take into account the background luminescence, which may derive from a non-enzymatic conversion of ME-luciferin-EGE to luciferin, we included a ‘minus P450’ control that contained no CYP2D6 enzyme. In order to quantify CYP2D6 activity, we subtracted background values prior to calculating the percentage of total luminescence (% TL) obtained from the solvent control (set to 100%). Low % TL indicates low CYP2D6 activity.
# In the three minus P450 control wells, 12.25 µl of the 4× reaction mixture was added. […] The plate was incubated for 10 minutes. The CYP2D6 enzyme reaction was initiated by the addition of 25 µl of 2× NADPH regeneration system (2.6 mM NADP^+, 6.6 mM glucose-6-phosphate, 6.6 mM MgCl2 and 0.8 U/ml glucose-6-phosphate dehydrogenase buffered in 0.1 mM sodium citrate at pH 5.5; Promega). After 45 minutes incubation, the enzyme reaction was stopped by the addition of 50 µl of the luciferin detection reagent, which contained also the esterase for the generation of the luminescence signal. The plate was incubated in the dark for 20 minutes in order to stabilize the signal measured by a Tecan infinite F200 PRO plate reader. […] The maximum allowed DMSO concentration in the final reaction mix was 1% according to the manufacturer’s protocol. The experiment was performed at room temperature and under prevention of excessive UV-light at minimum on two independent days (n = 2).
# Concentration-dependent CYP2D6 inhibition assays were performed by preparing a 5-step dilution series of the 400 µM compound solutions. […] After this dilution step, 12.5 µl of each dilution was transferred to the assay plate. The assay was performed as described above. The DMSO concentration was kept constant for all concentrations with a maximum of 1%. The experiments were performed on three independent experimental days (n = 3).
# (§1) Raw data obtained from Tecan infinite F200 PRO plate reader was processed by calculating total luminescence (% of untreated control) by applying the formula: raw data − (background luminescence) * 100/mean of negative control.
# [2] = system: P450-Glo detection reaction (unspecific esterase and modified firefly-luciferase); test: P450-Glo detection reaction control (luciferin-EGE, esterase, luciferase, test compound, no CYP2D6); conditions: for P450-Glo Detection Reaction MEAN Diff. (inhibition of the detection reaction) / P450-Glo Detection Reaction MEAN (total luminescence): 50 µM test compound; for P450-Glo Detection Reaction MEAN Diff. (inhibition of the detection reaction): difference to DMSO 1% control; for P450-Glo Detection Reaction MEAN (total luminescence): no CYP2D6, DMSO control = 100; for p < 0.05 (significant inhibition of the P450-Glo detection reaction): 50 µM, one-way ANOVA, Dunnett's test vs DMSO control
# Description: This detection-reagent consists of i) a detergent that stops the CYP2D6 enzyme reaction, ii) an unspecific esterase that continuously releases luciferin and iii) a modified firefly-luciferase, thus a stable luminogenic signal is generated, which can be quantified by a luminometer (Fig. 1). The detection reaction is incorporated in the P450-Glo CYP2D6 inhibition assay. However, we implemented additional controls for unspecific interactions of the test compounds with the detection reaction. For this purpose, the previously established luminescence quenching control reaction reported by Modarai et al.[9] was adapted to our requirements with modifications for the use of larger sample volumes. In addition, Modarai et al. converted ME-luciferin-EGE to luciferin in the absence of a test compound and then evaluated the inhibition of the luciferase reaction.We conducted the control step by using pure luciferin-EGE, esterase, luciferase and a test compound in the absence of CYP2D6 (Supplementary Table S4).
# The quantification of the P450-Glo detection reaction was performed by subtracting the background values prior to calculating the percentage of total luminescence (% TL) based on the total luminescence obtained from the solvent control (set to 100%).
# We then added 12.5 µl 4× reaction mixture (5 µl 1.5 mM luciferin-EGE stock solution, 500 µl 1 M KPO4 buffer and 745 µl luciferase free water) to the wells. Finally, 25 µl of the 2× NADPH regeneration system was added. In order to initiate the detection reaction, 50 µl of the reconstituted luciferin detection reagent containing the esterase was added to the samples, positive and solvent control wells. This step was followed by 20 minutes incubation in the dark for signal stabilization. In the wells reserved for background luminescence, luciferase-free water was added. Measurements were performed on a Tecan infinite F200 PRO plate reader on two independent days (n = 2) at minimum.
# as §1
# A one-way ANOVA followed by Dunnett’s multiple comparisons test was performed. […] A p-value of < 0.05 was used to indicate significance.
# CYP2D6, sequence (P10635 whole entry): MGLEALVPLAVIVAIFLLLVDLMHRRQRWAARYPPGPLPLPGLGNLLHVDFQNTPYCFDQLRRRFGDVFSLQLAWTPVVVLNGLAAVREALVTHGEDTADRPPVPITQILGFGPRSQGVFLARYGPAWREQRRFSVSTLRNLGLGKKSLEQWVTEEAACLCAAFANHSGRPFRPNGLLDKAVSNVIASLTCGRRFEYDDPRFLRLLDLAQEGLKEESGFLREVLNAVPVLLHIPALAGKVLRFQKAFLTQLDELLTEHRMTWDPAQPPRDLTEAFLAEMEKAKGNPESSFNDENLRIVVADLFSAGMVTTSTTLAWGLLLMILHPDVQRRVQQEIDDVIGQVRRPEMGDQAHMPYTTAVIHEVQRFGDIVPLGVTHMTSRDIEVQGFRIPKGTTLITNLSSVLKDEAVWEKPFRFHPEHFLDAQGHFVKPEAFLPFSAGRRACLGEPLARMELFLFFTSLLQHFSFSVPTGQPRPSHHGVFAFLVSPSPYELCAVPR
Structure (SMILES),IC50 [1],classification of CYP2D6 inhibition (actives / weak actives / inactives) [1],P450-Glo Detection Reaction MEAN Diff. (inhibition of the detection reaction) [2],P450-Glo Detection Reaction MEAN (total luminescence) [2],p < 0.05 (significant inhibition of the P450-Glo detection reaction) [2],"IC50 ([1]; IC50, P450-Glo CYP2D6 Inhibition Assay, recombinant human CYP2D6, 6 concentrations (compound 18: 4), n = 3)","IC50 at 45 min ([1]; human, recombinant human CYP2D6 baculosomes, pH 7.4, probe ME-luciferin-EGE)"
"CCC1=CC2CN3CCc4c([nH]c5ccccc45)C(C(=O)OC)(C2)C13 (single isomer, unassigned; (+)) [Compound 7, (+)-Catharanthine]",582 nM,"actives (those compounds were classified as active, which exhibited CYP2D6 IC50 values up to 10 µM)",6.41%,93.59 % TL,Yes,,
"CC=C1C2CCN3CCC4(C(=C2C(=O)OC)Nc2ccccc24)C13 (single isomer, unassigned; (+)) [Compound 17, (+)-Condylocarpine]",8160 nM,"actives (those compounds were classified as active, which exhibited CYP2D6 IC50 values up to 10 µM)",7.34%,92.66 % TL,Yes,,
"COc1ccc(CC2c3cc(O)c(OC)cc3CCN2C)cc1O (single isomer, unassigned; (+)) [Compound 19, (+)-Reticuline]",54.7 nM,"actives (those compounds were classified as active, which exhibited CYP2D6 IC50 values up to 10 µM)",1.06%,98.94 % TL,No,,
"COC(=O)C1CC23C=CCN4CCC5(c6ccccc6NC15CC2)C43 (single isomer, unassigned; (-)) [Compound 10, (-)-Venalstonine]",,,3.66%,96.34 % TL,No,,
"COC(=O)N1c2ccccc2C23C4CN5CCCC6(CCC12C(O)(C6)C4=O)C53 (single isomer, unassigned; (-)) [Compound 16, (-)-Kopsine]",,,10.30%,89.70 % TL,Yes,,
"COC(=O)C1=CO[C@@H](C)[C@@H]2CN3CC[C@]4(C(=O)Nc5ccccc54)[C@@H]3C[C@H]12 [Compound 1, Pteropodine]",33800 nM,weak actives,7.50%,92.50 % TL,Yes,,
"COc1ccc2c(c1OC)CN1CCc3cc4c(cc3C1C2C)OCO4 (stereo not shown) [Compound 3, Thalictrivacine]",,"actives (those compounds were classified as active, which exhibited CYP2D6 IC50 values up to 10 µM)",8.23%,91.77 % TL,Yes,5140 nM,
"O=C(NCCCCNCCCNC(=O)c1ccc(O)c(O)c1)c1ccc(O)c(O)c1 [Compound 4, Pistillarin]",,,13.61%,86.39 % TL,Yes,,
"O=C(O)c1ccccc1-n1ccc2c([nH]c3ccccc32)c1=O [Compound 5, Secofascaplysic acid]",50400 nM,weak actives,20.46%,79.54 % TL,Yes,,
"COC(=O)C1C(O)CCC2C[N+]3(C)CCc4c([nH]c5cccc(OC)c45)C3CC21 (stereo not shown) [Compound 8, Venenatine methiodide]",4600 nM,"actives (those compounds were classified as active, which exhibited CYP2D6 IC50 values up to 10 µM)",9.14%,90.86 % TL,Yes,,
"COc1ccc(C[C@@H]2NCCc3cc(OC)c(O)cc32)cc1O [Compound 9, (S)-Norreticuline]",,"actives (those compounds were classified as active, which exhibited CYP2D6 IC50 values up to 10 µM)",7.64%,92.36 % TL,Yes,,63.6 nM
"COc1ccc(C[C@H]2c3cc(OC)c(OC)cc3CCN2C)cc1O [Compound 11, (+)-Laudanidine]",380 nM,"actives (those compounds were classified as active, which exhibited CYP2D6 IC50 values up to 10 µM)",5.86%,94.14 % TL,Yes,,
"COc1cc2c(cc1OC)C1Cc3cc(O)c(O)cc3CN1CC2 (stereo not shown) [Compound 14, Spinosine]",117 nM,"actives (those compounds were classified as active, which exhibited CYP2D6 IC50 values up to 10 µM)",4.73%,95.27 % TL,Yes,,
"COc1ccc(/C=C\c2cc(OC)c(OC)cc2CCN(C)C)cc1 [Compound 15, Des-N,O-dimethylarmepavine]",198 nM,"actives (those compounds were classified as active, which exhibited CYP2D6 IC50 values up to 10 µM)",6.23%,93.77 % TL,Yes,,
"COC(=O)C1=CO[C@@H](C)[C@H]2CN3CC[C@@]4(C(=O)Nc5ccccc54)[C@@H]3C[C@H]12 [Compound 23, Isomitraphylline]",,,0.59%,99.41 % TL,No,,
